The supplement of paper PMC10883282
± gives the standard deviation of the averaged measurements.

Legend:
Assay in all cases: relative viability vs DMSO control (72 h) (fraction); higher = more viable cells
SYO-1 = tested on: SYO-1
How it was run: (§1)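 Plates held 72 h at 37 °C and 5% CO2 contained sarcoma cell lines seeded in 384-well format to reach 80–90% confluence, plus 2.5 µl of serially diluted compound added after 24 h. Source plate concentrations ran from 10 mM to 0.0002 mM, with 0.1% DMSO as vehicle and a 5 µM positive control. Percent growth from ATPLite readings, averaged over up to triplicate wells, gave relative viability. Values were rescaled with 1 as full and 0 as none.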

SW872 = tested on: SW872
How it was run: as §1

KHOS-NP = tested on: KHOS-NP
How it was run: as §1

SW684 = tested on: SW684
How it was run: as §1

HT1080 = tested on: HT1080
How it was run: as §1

G401 = tested on: G401
How it was run: as §1

SK-LMS-1 = tested on: SK-LMS-1
How it was run: as §1

VA-ES-BJ = tested on: VA-ES-BJ
How it was run: as §1

HS729 = tested on: HS729
How it was run: as §1

A204 = tested on: A204
How it was run: as §1

SW1353 = tested on: SW1353
How it was run: as §1

MES-SA = tested on: MES-SA
How it was run: as §1

CCS(=O)(=O)N1CC(CC#N)(n2cc(-c3ncnc4[nH]ccc34)cn2)C1 [Baricitinib]
Settings	relative viability
A204, 0.00017 µM	1.06 ± 0.053
A204, 0.00051 µM	1.04 ± 0.037
A204, 0.00152 µM	1.05 ± 0.03
A204, 0.00457 µM	1.05 ± 0.043
A204, 0.01372 µM	1.03 ± 0.018
A204, 0.04115 µM	1.04 ± 0.021
A204, 0.1235 µM	1.02 ± 0.022
A204, 0.3704 µM	1.01 ± 0.022
A204, 1.111 µM	0.971 ± 0.051
A204, 3.333 µM	0.934 ± 0.046
A204, 10 µM	0.83 ± 0.013
G401, 0.00017 µM	0.955 ± 0.033
G401, 0.00051 µM	0.9564 ± 0.009
G401, 0.00152 µM	0.975 ± 0.025
G401, 0.00457 µM	0.963 ± 0.048
G401, 0.01372 µM	0.948 ± 0.034
G401, 0.04115 µM	0.98 ± 0.018
G401, 0.1235 µM	0.965 ± 0.033
G401, 0.3704 µM	0.961 ± 0.026
G401, 1.111 µM	0.978 ± 0.025
G401, 3.333 µM	0.959 ± 0.035
G401, 10 µM	0.887 ± 0.038
HS729, 0.00017 µM	0.937 ± 0.027
HS729, 0.00051 µM	0.97 ± 0.052
HS729, 0.00152 µM	0.999 ± 0.052
HS729, 0.00457 µM	0.996 ± 0.0091
HS729, 0.01372 µM	1 ± 0.04
HS729, 0.04115 µM	0.959 ± 0.036
HS729, 0.1235 µM	0.94 ± 0.036
HS729, 0.3704 µM	0.9518 ± 0.0041
HS729, 1.111 µM	0.926 ± 0.016
HS729, 3.333 µM	0.9194 ± 0.006
HS729, 10 µM	0.87 ± 0.066
HT1080, 0.00017 µM	1.05 ± 0.029
HT1080, 0.00051 µM	1.04 ± 0.013
HT1080, 0.00152 µM	1.05 ± 0.017
HT1080, 0.00457 µM	1.04 ± 0.0015
HT1080, 0.01372 µM	1.05 ± 0.018
HT1080, 0.04115 µM	1.06 ± 0.029
HT1080, 0.1235 µM	1.024 ± 0.0035
HT1080, 0.3704 µM	1.04 ± 0.029
HT1080, 1.111 µM	1.02 ± 0.014
HT1080, 3.333 µM	1.07 ± 0.054
HT1080, 10 µM	1.024 ± 0.0044
KHOS-NP, 0.00017 µM	1.04 ± 0.032
KHOS-NP, 0.00051 µM	1.04 ± 0.017
KHOS-NP, 0.00152 µM	1.052 ± 0.0074
KHOS-NP, 0.00457 µM	1.06 ± 0.021
KHOS-NP, 0.01372 µM	1.04 ± 0.025
KHOS-NP, 0.04115 µM	1.04 ± 0.013
KHOS-NP, 0.1235 µM	1.06 ± 0.021
KHOS-NP, 0.3704 µM	1.02 ± 0.011
KHOS-NP, 1.111 µM	1.03 ± 0.019
KHOS-NP, 3.333 µM	0.985 ± 0.03
KHOS-NP, 10 µM	0.906 ± 0.011
MES-SA, 0.00017 µM	0.928 ± 0.015
MES-SA, 0.00051 µM	0.936 ± 0.037
MES-SA, 0.00152 µM	0.945 ± 0.047
MES-SA, 0.00457 µM	0.942 ± 0.013
MES-SA, 0.01372 µM	0.95 ± 0.018
MES-SA, 0.04115 µM	0.929 ± 0.037
MES-SA, 0.1235 µM	0.935 ± 0.028
MES-SA, 0.3704 µM	0.929 ± 0.026
MES-SA, 1.111 µM	0.893 ± 0.033
MES-SA, 3.333 µM	0.83 ± 0.013
MES-SA, 10 µM	0.753 ± 0.033
SK-LMS-1, 0.00017 µM	1.06 ± 0.02
SK-LMS-1, 0.00051 µM	1.07 ± 0.042
SK-LMS-1, 0.00152 µM	1.07 ± 0.064
SK-LMS-1, 0.00457 µM	1.03 ± 0.024
SK-LMS-1, 0.01372 µM	1.02 ± 0.032
SK-LMS-1, 0.04115 µM	1.07 ± 0.037
SK-LMS-1, 0.1235 µM	1.06 ± 0.026
SK-LMS-1, 0.3704 µM	1.04 ± 0.029
SK-LMS-1, 1.111 µM	1.06 ± 0.07
SK-LMS-1, 3.333 µM	1.01 ± 0.03
SK-LMS-1, 10 µM	0.878 ± 0.067
SW684, 0.00017 µM	1.06 ± 0.051
SW684, 0.00051 µM	1.04 ± 0.041
SW684, 0.00152 µM	1.12 ± 0.032
SW684, 0.00457 µM	1.09 ± 0.023
SW684, 0.01372 µM	1.13 ± 0.079
SW684, 0.04115 µM	1.07 ± 0.032
SW684, 0.1235 µM	1.09 ± 0.063
SW684, 0.3704 µM	1.03 ± 0.024
SW684, 1.111 µM	1.07 ± 0.069
SW684, 3.333 µM	1.05 ± 0.049
SW684, 10 µM	0.915 ± 0.062
SW872, 0.00017 µM	1.014 ± 0.0033
SW872, 0.00051 µM	1.01 ± 0.022
SW872, 0.00152 µM	1.03 ± 0.042
SW872, 0.00457 µM	1.03 ± 0.036
SW872, 0.01372 µM	1.05 ± 0.013
SW872, 0.04115 µM	1.04 ± 0.043
SW872, 0.1235 µM	1.03 ± 0.02
SW872, 0.3704 µM	1.03 ± 0.043
SW872, 1.111 µM	1.05 ± 0.033
SW872, 3.333 µM	1.01 ± 0.03
SW872, 10 µM	0.877 ± 0.022
SW1353, 0.00017 µM	0.952 ± 0.013
SW1353, 0.00051 µM	0.931 ± 0.015
SW1353, 0.00152 µM	0.977 ± 0.037
SW1353, 0.00457 µM	0.975 ± 0.03
SW1353, 0.01372 µM	0.947 ± 0.036
SW1353, 0.04115 µM	0.961 ± 0.043
SW1353, 0.1235 µM	0.953 ± 0.028
SW1353, 0.3704 µM	0.969 ± 0.022
SW1353, 1.111 µM	0.985 ± 0.019
SW1353, 3.333 µM	0.915 ± 0.034
SW1353, 10 µM	0.786 ± 0.03
SYO-1, 0.00017 µM	0.994 ± 0.049
SYO-1, 0.00051 µM	1.01 ± 0.012
SYO-1, 0.00152 µM	1.01 ± 0.036
SYO-1, 0.00457 µM	0.994 ± 0.024
SYO-1, 0.01372 µM	0.999 ± 0.048
SYO-1, 0.04115 µM	0.993 ± 0.028
SYO-1, 0.1235 µM	0.988 ± 0.04
SYO-1, 0.3704 µM	0.985 ± 0.035
SYO-1, 1.111 µM	0.988 ± 0.046
SYO-1, 3.333 µM	0.952 ± 0.056
SYO-1, 10 µM	0.897 ± 0.044
VA-ES-BJ, 0.00017 µM	1.02 ± 0.05
VA-ES-BJ, 0.00051 µM	1.01 ± 0.038
VA-ES-BJ, 0.00152 µM	1.02 ± 0.055
VA-ES-BJ, 0.00457 µM	1.03 ± 0.023
VA-ES-BJ, 0.01372 µM	1.05 ± 0.053
VA-ES-BJ, 0.04115 µM	1.03 ± 0.021
VA-ES-BJ, 0.1235 µM	1.03 ± 0.038
VA-ES-BJ, 0.3704 µM	1.03 ± 0.015
VA-ES-BJ, 1.111 µM	1.04 ± 0.021
VA-ES-BJ, 3.333 µM	1.06 ± 0.018
VA-ES-BJ, 10 µM	0.996 ± 0.025
